Results reported in patent US5637591A, “Antimicrobial and anticollagenase activity of phenazine-5, 10-dioxide and derivatives” (Fuji ImmunoPharmaceuticals Corp., priority 1995, dated 1997).
≈ marks a conversion by molar mass, not a printed value. Read-outs that look alike come from different tables or passages of the source.

What was measured:
[1] = system: Peptostreptococcus anaerobius; assay: anaerobic liquid culture growth inhibition, OD 650 nm; type: cell-based; conditions: anaerobic overnight, OD 650 nm, read-out: IC50 Peptostreptococcus anaerobius
[2] = system: Fusobacterium necrophorum; assay: as above; type: cell-based; conditions: anaerobic overnight, OD 650 nm, read-out: IC50 Fusobacterium necrophorum
Bacteroides levii = assay: as above; type: cell-based; conditions: Porphyromonas levii; anaerobic overnight, OD 650 nm; read-out: IC50 Bacteroides levii
[3] = oral bioavailability in rats (AUC versus intravenous); conditions: rat, in vivo
Method: The bioavailibility of orally delivered substituted phenazine-5,10-dioxideswas measured because oral delivery also can comprise systemic administration. The bioavailibility was assessed for the phenazine-5,10-dioxide derivative, 2-aminophenazine-5,10-dioxide administered by oral gavage to rats. Vehicles and dose levels are detailed in Table 9. Calculations of bioavailability (F) following oral administration were made based on area under the curve (AUC) calculations and comparsion with intravenous administration.

[4] = system: Escherichia coli strain DH5α; assay: zone inhibition method on agar plate; type: cell-based; conditions: Escherichia coli; 10 μl of 1 mg/ml on 3 mm paper disk, overnight 37° C.; radius from center of disk; read-out: E. coli Clear Zone
Method: (§1) Solutions of the agents were tested for activity against Escherichia coli strain DH5α by a zone inhibition method, and against P. gingivalis strain 2561 by addition to plating medium to determine minimum inhibitory concentrations (M/C). For the zone inhibition study, a suspension of E. coli was spread on the surface of an agar plate. A 3 mm diameter paper disk was placed on the seeded agar surface, and 10 μl of solution of each compound formulated at 1 mg/ml was added to the disk. Plates were incubated overnight at 37° C. The radius of the zone of inhibition was measured from the center of the disk to the edge of the E. coli bacterial lawn. For determination of MIC, drug solutions were mixed with plating medium to produce a range of final drug concentrations. Media with drug were plated in the wells of 24-well plates. A drop of bacterial suspension containing 2-5×10^2 CFU P. gingivalis was placed on each well. Plates were incubated 1 week in an anaerobic chamber at 37° C.

Clostridium perfringens = assay: microbe, parasite or virus in culture; type: cell-based; conditions: read-out: IC50 Clostridium perfringens
Fusobacterium nucleatum = assay: anaerobic liquid culture growth inhibition, OD 650 nm; type: cell-based; conditions: anaerobic overnight, OD 650 nm, read-out: IC50 Fusobacterium nucleatum
[5] = system: Porphyromonas gingivalis 2561; assay: as above; type: cell-based; conditions: Porphyromonas gingivalis, 2561; anaerobic overnight, OD 650 nm; read-out: IC50 Porphyromonas gingivalis 2561
Enterobacter cloacae = assay: IC90 in plating medium, 24-well plates; type: cell-based
Method: (§2) Drug solutions were mixed with plating medium to produce a range of final drug concentrations. Media with drug were plated in the wells of 24-well plates. A drop of bacterial suspension containing 2-5×10^2 CFU was placed on each well. Plates were incubated overnight at 37° C.
(§3) The concentration of the compound necessary to reduce viability of each micro-organism by 90% (inhibitory concentration 90%=IC90) is reported in Table 3 as μg/ml. Bacterial strains are listed in order of decreasing susceptibility to 2-aminophenazine-5,10-dioxide.

Bacillus cereus = assay: IC90 in plating medium, 24-well plates; type: cell-based; conditions: 90% inhibition of growth, overnight 37° C.
Method: as §2, §3

Streptococcus faecalis = assay: IC90 in plating medium, 24-well plates; type: cell-based; conditions: Enterococcus faecalis
Method: as §2, §3

Micrococcus luteus = assay: IC90 in plating medium, 24-well plates; type: cell-based
Method: as §2, §3

Corynebacterium xerosis = assay: IC90 in plating medium, 24-well plates; type: cell-based
Method: as §2, §3

Pseudomonas aeruginosa = assay: IC90 in plating medium, 24-well plates; type: cell-based
Method: as §2, §3

Proteus mirabilis = assay: IC90 in plating medium, 24-well plates; type: cell-based
Method: as §2, §3

Klebsiella pneumoniae = assay: IC90 in plating medium, 24-well plates; type: cell-based
Method: as §2, §3

E. coli (strain B) = assay: IC90 in plating medium, 24-well plates; type: cell-based; conditions: Escherichia coli, rfa
Method: as §2, §3

Serratia marsescens = assay: IC90 in plating medium, 24-well plates; type: cell-based
Method: as §2, §3

Staphylococcus aureus = assay: IC90 in plating medium, 24-well plates; type: cell-based
Method: as §2, §3

[6] = system: Porphyromonas gingivalis RB-22D-1; assay: anaerobic liquid culture growth inhibition, OD 650 nm; type: cell-based; conditions: RB22D1, anaerobic overnight, OD 650 nm, read-out: IC50 Porphyromonas gingivalis RB-22D-1
[7] = system: P. gingivalis strain 2561; assay: minimum inhibitory concentration by addition to plating medium; type: cell-based; conditions: for MIC: Porphyromonas gingivalis, 2561, 168 h, read-out: P. gingivalis MIC; for concentration range of activity against P. gingivalis: molar basis; for activity greater than Tetracycline against P. gingivalis: weight-concentration basis
Method: as §1

Bacteroides fragilis = assay: anaerobic liquid culture growth inhibition, OD 650 nm; type: cell-based; conditions: anaerobic overnight, OD 650 nm, read-out: IC50 Bacteroides fragilis
[8] = type: in vivo; conditions: for Other Signs of Toxicity: mouse, in vivo, ip
Text: The potential for toxic side effects following systemic administration similar to the method used in the efficacy study was investigated by administering the compound 2-methylphenazine-5,10-dioxide to mice either in single or multiple intraperitoneal (IP) injections.

[9] = complete inhibition of growth, 1 week anaerobic, 37° C.

Nc1ccc2c(c1)[n+]([O-])c1ccccc1[n+]2[O-] [2-aminophenazine-5,10-dioxide]
IC50 [1]: 0.06 µg/mL (≈ 0.264 µM) | IC50 [2]: 0.03 µg/mL (≈ 0.132 µM) | IC50 (Bacteroides levii): 0.03 µg/mL (≈ 0.132 µM) | AUC ([3]; iv, 10 mg/kg, rats, 10 mg/kg IV administration): 390 ng·h/mL | AUC ([3]; po, 50 mg/kg, rats, 50 mg/kg oral, 2% Brij35/water): 1480 ng·h/mL | bioavailability ([3]; po, 50 mg/kg, rats, 50 mg/kg oral, 2% Brij35/water, compared to 10 mg/kg IV, read-out: F (Bioavailability)): 76% | AUC ([3]; po, 50 mg/kg, rats, 50 mg/kg oral, 10% Brij35/Mineral oil): 2380 ng·h/mL | bioavailability ([3]; po, 50 mg/kg, rats, 50 mg/kg oral, 10% Brij35/Mineral oil, compared to 10 mg/kg IV, read-out: F (Bioavailability)): 120% | AUC ([3]; po, 50 mg/kg, rats, 50 mg/kg oral, 10% Brij35/water): 1250 ng·h/mL | bioavailability ([3]; po, 50 mg/kg, rats, 50 mg/kg oral, 10% Brij35/water, compared to 10 mg/kg IV, read-out: F (Bioavailability)): 64% | AUC ([3]; po, 50 mg/kg, rats, 50 mg/kg oral, water): 1740 ng·h/mL | bioavailability ([3]; po, 50 mg/kg, rats, 50 mg/kg oral, water, compared to 10 mg/kg IV, read-out: F (Bioavailability)): 89% | AUC ([3]; po, 60 mg/kg, rats, 60 mg/kg oral, Cremaphor): 103 ng·h/mL | bioavailability ([3]; po, 60 mg/kg, rats, 60 mg/kg oral, Cremaphor, compared to 10 mg/kg IV, read-out: F (Bioavailability)): 4% | AUC ([3]; po, 100 mg/kg, rats, 100 mg/kg oral, Arlacel 83): 2630 ng·h/mL | bioavailability ([3]; po, 100 mg/kg, rats, 100 mg/kg oral, Arlacel 83, compared to 10 mg/kg IV, read-out: F (Bioavailability)): 67% | AUC ([3]; po, 100 mg/kg, rats, 100 mg/kg oral, Encapsin CD): 3520 ng·h/mL | bioavailability ([3]; po, 100 mg/kg, rats, 100 mg/kg oral, Encapsin CD, compared to 10 mg/kg IV, read-out: F (Bioavailability)): 90% | AUC ([3]; po, 100 mg/kg, rats, 100 mg/kg oral, PEG (Polyethyleneglycol)): 3940 ng·h/mL | bioavailability ([3]; po, 100 mg/kg, rats, 100 mg/kg oral, PEG (Polyethyleneglycol), compared to 10 mg/kg IV, read-out: F (Bioavailability)): 100% | zone of inhibition at 1000 µg/mL [4]: 32 mm | IC50 (Clostridium perfringens): 1 µg/mL (≈ 4.4 µM) | IC50 (Fusobacterium nucleatum): 10 µg/mL (≈ 44 µM) | IC50 [5]: 0.04 µg/mL (≈ 0.176 µM) | IC90 (Enterobacter cloacae): > 10 µg/mL | IC90 (Bacillus cereus): 0.31 µg/mL (≈ 1.36 µM) | IC90 (Streptococcus faecalis): 5 µg/mL (≈ 22 µM) | activity against M. luteus (Micrococcus luteus): lack of activity | IC90 (Micrococcus luteus; Micrococcus luteus): 10 µg/mL (≈ 44 µM) | IC90 (Corynebacterium xerosis): 1.25 µg/mL (≈ 5.5 µM) | IC90 (Pseudomonas aeruginosa): > 10 µg/mL | IC90 (Proteus mirabilis): 5 µg/mL (≈ 22 µM) | IC90 (Klebsiella pneumoniae): 10 µg/mL (≈ 44 µM) | IC90 (E. coli (strain B)): 0.31 µg/mL (≈ 1.36 µM) | IC90 (Serratia marsescens): 10 µg/mL (≈ 44 µM) | IC90 (Staphylococcus aureus): 0.62 µg/mL (≈ 2.73 µM) | IC50 [6]: 0.12 µg/mL (≈ 0.528 µM) | MIC ([7]; MIC on a molar basis): 0.009 µM | MIC [7, 9]: 0.002 µg/mL | concentration range of activity against P. gingivalis [7]: nanomolar concentration range | activity greater than Tetracycline against P. gingivalis [7]: more than 100 fold | IC50 (Bacteroides fragilis): 1 µg/mL (≈ 4.4 µM)

Cc1ccc2c(c1)[n+]([O-])c1ccccc1[n+]2[O-] [2-methylphenazine-5,10-dioxide]
IC50 [1]: 0.2 µg/mL (≈ 0.884 µM) | Deaths ([8]; mice, 15 mg/kg IP, 2.5% CD, 17 injections): 0 | Deaths ([8]; mice, 30 mg/kg IP, DMSO, 15 injections): 0 | Deaths ([8]; mice, 60 mg/kg IP, 10% CD, 1 injection): 0 | toxicity ([8]; mice, IP, at several times the therapeutic dose): non-toxic | Other Signs of Toxicity ([8]; 15 mg/kg): NONE | Other Signs of Toxicity ([8]; 30 mg/kg): NONE | Other Signs of Toxicity ([8]; 60 mg/kg): NONE | IC50 [2]: 1.5 µg/mL (≈ 6.63 µM) | IC50 (Bacteroides levii): 1 µg/mL (≈ 4.42 µM) | bioavailability ([3]; po, 80 mg/kg, Rats, 80 mg/kg PO, 10% Cremaphor (Table 8 footnote 1), read-out: F): ~2% | bioavailability ([3]; po, 100 mg/kg, Rats, 100 mg/kg PO, 2% Brij 35 (Table 8 footnote 4), read-out: F): ~100% | bioavailability ([3]; po, 100 mg/kg, Rats, 100 mg/kg PO, 10% Arlacel 83/Corn Oil (Table 8 footnote 3), read-out: F): ~37% | bioavailability ([3]; po, 100 mg/kg, Rats, 100 mg/kg PO, 100% PEG400 (Table 8 footnote 2), read-out: F): ~50% | bioavailability ([3]; po, 100 mg/kg, Rats, 100 mg/kg PO, Encapsin CD (Table 8 footnote 2), read-out: F): ~50% | zone of inhibition at 1000 µg/mL [4]: 19 mm | IC50 (Clostridium perfringens): 1 µg/mL (≈ 4.42 µM) | IC50 (Fusobacterium nucleatum): > 10 µg/mL | IC50 [5]: 0.16 µg/mL (≈ 0.707 µM) | IC50 [6]: 0.35 µg/mL (≈ 1.55 µM) | MIC ([7]; MIC on a molar basis): 0.018 µM | MIC [7, 9]: 0.004 µg/mL | concentration range of activity against P. gingivalis [7]: nanomolar concentration range | activity greater than Tetracycline against P. gingivalis [7]: more than 100 fold | IC50 (Bacteroides fragilis): 7 µg/mL (≈ 30.9 µM)
